This note sets out measurements from ChEMBL document CHEMBL1148381, “Application of CoMFA and CoMSIA 3D-QSAR and docking studies in optimization of mercaptobenzenesulfonamides as HIV-1 integrase inhibitors” (J Med Chem, 2004).

Each structure is given as a SMILES string.

Test [1] concerns the target T1, Human immunodeficiency virus type 1 integrase (Human immunodeficiency virus 1, UniProt Q7ZJM1). Description: Inhibitory activity against 3' processing by HIV integrase.
For test [2], the target named is T1, Human immunodeficiency virus type 1 integrase. Description: Inhibitory activity against DNA strand transfer by HIV integrase.

T1 sequence (Q7ZJM1 whole entry): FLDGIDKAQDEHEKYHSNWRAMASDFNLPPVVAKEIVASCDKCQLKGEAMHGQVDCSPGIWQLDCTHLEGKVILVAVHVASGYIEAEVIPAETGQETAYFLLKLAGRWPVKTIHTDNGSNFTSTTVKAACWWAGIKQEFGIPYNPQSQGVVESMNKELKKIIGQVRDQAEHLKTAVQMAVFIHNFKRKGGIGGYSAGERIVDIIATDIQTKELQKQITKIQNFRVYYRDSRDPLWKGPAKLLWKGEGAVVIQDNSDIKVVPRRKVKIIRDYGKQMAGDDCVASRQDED

Consider `O=S(=O)(Nc1nnc2n1-c1ccccc1CC2)c1ccc(Cl)cc1S`, for which the IC50 – broadly, the concentration needed to halve the response being measured – in test [1] was 21.9 µM; in test [2], 19.5 µM.

Regarding `CC(C)Cn1cnnc1NS(=O)(=O)c1cc(C(=O)Nc2ccc(Cl)cc2)c(Cl)cc1S`, the IC50 in test [1] was 38 µM; in test [2], 39.8 µM.

On to `Cc1cc2c(cc1Cl)SC(C(C#N)C#N)NS2(=O)=O` (configuration not stated), for which the IC50 in test [1] was 708 µM; in test [2], 603 µM.

As for `O=C(CC(Sc1[nH]cnc2ncnc1-2)Sc1[nH]cnc2ncnc1-2)Nc1ccc(S(=O)(=O)Nc2ccc(/N=N/c3ccccc3)cc2)cc1`, the values for the IC50 in test [1] and in test [2] were 141 µM and 112 µM, respectively.

In the case of `Cc1cc(S(=O)(=O)NC(=NN)NNc2cccc(C(F)(F)F)n2)c(S)cc1Cl`, the results for the IC50 in test [1] and in test [2] were 87.1 µM and 100 µM, respectively.

As to `CCOC(=O)C(C#N)C1NS(=O)(=O)c2cc(C)c(Cl)cc2S1` (configuration not stated), the IC50 in test [1] is 331 µM; in test [2], 112 µM.

Take `CC(=O)C(/N=N/c1ccc(S(=O)(=O)Nc2ccccn2)cc1)C(=O)Nc1ccccc1C` (configuration not stated): the results for the IC50 in test [1] and in test [2] were 66.1 µM and 72.4 µM, respectively.

Regarding `CCCCn1cnnc1NS(=O)(=O)c1cc(C(=O)NCc2ccccc2)c(Cl)cc1S`, the IC50 in test [1] was 89.1 µM; in test [2], 70.8 µM.

With `O=C(Nc1ccc(Cl)cc1)c1cc(S(=O)(=O)Nc2nncn2-c2ccc(F)cc2)c(S)cc1Cl`, the IC50 in test [1] and in test [2] was 37.2 µM each time.

Regarding `NS(=O)(=O)c1ccc(/N=N/C2Sc3nc4ccccc4n3C2=O)cc1` (configuration not stated), the 50% inhibitory concentration (IC50) in test [1] is 209 µM; in test [2] it was 126 µM.

With `COc1cccc(Nc2n[nH]c(NS(=O)(=O)c3cc(C)c(Cl)cc3S)n2)c1`, the IC50 is 6.31 µM in test [1] and 20.9 µM in test [2].

Consider `Cc1cnc(NS(=O)(=O)c2ccc(/N=N/c3cc4ccccc4cc3O)cc2)s1`, for which the IC50 in test [1] is 38.9 µM; in test [2], 50.1 µM.

Take `O=S(=O)(Nc1ccccn1)c1ccc(/N=N/c2cnc(O)c(O)c2)cc1`: the IC50 in test [1] is 60.3 µM; in test [2], 58.9 µM.

`Cc1cc(S(=O)(=O)Nc2nc3ccccc3nc2-c2ccc(Cl)cc2)c(S)cc1Cl`: the IC50 in test [1] is 20 µM; in test [2], 12 µM.

On to `Cc1cc(S(=O)(=O)Nc2nnc3c(Cl)cc(C(F)(F)F)cn23)c(S)cc1Cl`, for which the results for the IC50 in test [1] and in test [2] were 17.8 µM and 20.9 µM, respectively.

Take `Cc1ccc(NC(=O)c2cc(S(=O)(=O)Nc3nncn3Cc3ccccc3)c(S)cc2Cl)cc1`: the values for the IC50 in test [1] and in test [2] were 8.91 µM and 7.94 µM, respectively.

Turning to `CCCCn1cnnc1NS(=O)(=O)c1cc(C(=O)Nc2ccc(C)cc2)c(Cl)cc1S`, the IC50 in test [1] was 60.3 µM; in test [2] it was 33.9 µM.

In the case of `Cc1cc(S(=O)(=O)NC2=NCCCN2)c(S)cc1Cl`, the values for the IC50 in test [1] and in test [2] were 148 µM and 145 µM, respectively.

`COc1cc(Nc2nnc(NS(=O)(=O)c3cc(C)c(Cl)cc3S)[nH]2)cc(OC)c1OC`: the IC50 is 15.5 µM in test [1] and 16.6 µM in test [2].

For `Cc1cc(S(=O)(=O)Nc2nnc3cnc4ccccc4n23)c(S)cc1Cl`, the values for the half-inhibitory concentration (IC50) in test [1] and in test [2] were 31.6 µM and 8.32 µM, respectively.

Regarding `CC1=NN(c2ccccc2)C(=O)C1/N=N/c1ccc(S(=O)(=O)Nc2scc(C)c2C)cc1` (configuration not stated), the values for the IC50 in test [1] and in test [2] were 129 µM and 107 µM, respectively.
